Laboratory results from US20220031684A1, “PROPHYLACTIC EFFICACY OF SEROTONIN 4 RECEPTOR AGONISTS AGAINST STRESS” (THE TRUSTEES OF COLUMBIA UNIVERSITY IN THE CITY OF NEW YORK, priority 2019, published 2022).

Columns and labels:
[1] = Chronic corticosterone (CORT) model: body weight; type: in vivo, mice; conditions: male C57BL/6NTac; Flx 18 mg/kg/day in drinking water or RS-67,333 1.5 mg/kg/day in osmotic minipumps for 3 weeks prior to CORT
Experimental: (§1) This chronic CORT elevation dysregulates the hypothalamic-pituitary-adrenal axis (HPA) in a manner similar to that observed in clinical depression. The dose and duration of CORT treatment was selected based on previous studies. CORT (35 μg/ml, equivalent to about 5 mg/kg/day) dissolved in 0.45% hydroxypropyl-o-cyclodextrin (0-CD) or vehicle (VEH) (0.45% j-CD) was available ad libitum in the drinking water in opaque bottles to protect it from light. VEH- and CORT-treated water was changed every 3 days to prevent possible degradation. Contextual Fear Conditioning (CFC): A 3-shock CFC procedure was administered as previously published. Briefly, mice were placed into context A and administered 3 2-s shocks (0.75 mA) at 180 s, 240 s or 300 s following placement into context A. Mice were removed from the context 15 s following the termination of shock (at 317 s). For context retrieval, mice were placed back into context A for 300 s. Electrophysiology: Electrophysiology was conducted as previously described. Statistical Analysis: Results from data analyses are expressed as means±SEM. Alpha was set to 0.05 for all analyses. Data were analyzed using GraphPad Prism v7.0 or v8.0. For all experiments, unless otherwise noted, one- or two-way ANOVAs with repeated-measures were applied to the data as appropriate. […] Videos were scored using ANY-maze behavior tracking software (Stoelting, Wood Dale, Ill.). […]

C57BL/6NTac mice [2] = test: Sucrose splash test (ST) in CORT model; type: in vivo; conditions: male C57BL/6NTac; Flx 18 mg/kg/day or RS-67,333 1.5 mg/kg/day for 3 weeks prior to CORT
Experimental: as §1

C57BL/6NTac mice [3] = test: Adverse side effects of chronic administration; type: in vivo
Experimental: as §1

129S6/SvEv mice = test: Novelty-suppressed feeding (NSF) after CFC; type: in vivo
Experimental: This chronic CORT elevation dysregulates the hypothalamic-pituitary-adrenal axis (HPA) in a manner similar to that observed in clinical depression. The dose and duration of CORT treatment was selected based on previous studies. CORT (35 μg/ml, equivalent to about 5 mg/kg/day) dissolved in 0.45% hydroxypropyl-o-cyclodextrin (0-CD) or vehicle (VEH) (0.45% j-CD) was available ad libitum in the drinking water in opaque bottles to protect it from light. VEH- and CORT-treated water was changed every 3 days to prevent possible degradation. Contextual Fear Conditioning (CFC): A 3-shock CFC procedure was administered as previously published. Briefly, mice were placed into context A and administered 3 2-s shocks (0.75 mA) at 180 s, 240 s or 300 s following placement into context A. Mice were removed from the context 15 s following the termination of shock (at 317 s). For context retrieval, mice were placed back into context A for 300 s. Electrophysiology: Electrophysiology was conducted as previously described. Statistical Analysis: Results from data analyses are expressed as means±SEM. Alpha was set to 0.05 for all analyses. Data were analyzed using GraphPad Prism v7.0 or v8.0. For all experiments, unless otherwise noted, one- or two-way ANOVAs with repeated-measures were applied to the data as appropriate. Significant main effects and/or interactions were followed by Fisher's PLSD post hoc analysis or unpaired t-tests. Drugs: All drugs were prepared in physiological saline and all injections were administered intraperitoneally (i.p.) in volumes of 0.1 cc per […] body weight unless otherwise noted. Fluoxetine hydrochloride (Flx): Flx (BioTrend Chemicals AG, BG197, Zurich, Germany) was administered in the drinking water (18 mg/kg/day) for 3 weeks before the start of CORT. […] (R,S)-ketamine (K): (R,S)-ketamine (Ketaset III, Ketamine HCl injection, Fort Dodge Animal Health, Fort Dodge, Iowa) was administered in a single dose at 30 mg/kg of body weight 1 week before the start of CFC. […] PF-04995274: PF-04995274 (Sigma, Catalog No. 1331782-27-4, St. Louis, Mo.) was administered a single dose at 3 or 10 mg/kg of body weight 1 week before the start of CFC. PF-04995274 was dissolved in saline using an ultrasonic homogenizer (BioLogics, Model 3000, Manassas, Va.). Osmotic minipump implantation: ALZET osmotic minipumps (Model 2004, […], 28 days) were implanted subcutaneously under isoflurane anesthesia as previously described [S2]. Osmotic minipumps were rotated under the skin two to three times per week. Behavioral Assays: All experiments were approved by the Institutional Animal Care and Use Committee (IACUC) at the New York Psychiatric Institute (NYSPI). Elevated Plus Maze (EPM): Testing was performed as previously described [S3]. Briefly, the maze is a plus-cross-shaped apparatus consisting of four arms, two open and two enclosed by walls, linked by a central platform at a height of 50 cm from the floor. Mice were individually placed in the center of the maze facing an open arm and were allowed to explore the maze for 5 min. The time spent in and the number of entries into the open arms was used as an anxiety index. Videos were scored using ANY-maze behavior tracking software (Stoelting, Wood Dale, Ill.). Novelty-Suppressed Feeding: The NSF is a conflict test that elicits competing motivations: the drive to eat and the fear of venturing into the center of a brightly lit arena. The latency to feed is used as an index of anxiety-like behavior, because classical anxiolytic drugs decrease this measure. The NSF test was carried out during an 8 min period as previously described [S3]. Briefly, the testing apparatus consisted of a plastic box (50×50×20 cm), the floor of which was covered with approximately 2 cm of bedding. For 129S6/SvEv experiments, mice were food restricted for 12 h. For the C57BL/6N experiments, mice were food restricted for 24 h. […]

DRN 5-HT neurons = test: In vivo electrophysiological recordings of DRN 5-HT neurons; set-up: species or system mice; conditions: RS67333 1.5 mg/kg i.p.; after vs before administration
Experimental: FIGS. 7A-7G. Acute 5-HT4 receptor stimulation induces fast anxiolytic-like effects on 5-HT function through a modulation of the mPFC in an anxious BALB/cJRj mouse strain. (7A) Before the administration of RS67333 (RS, 1.5 mg/kg), different tracks were performed to record 5-HT neurons for 30 min. At the end of this period, RS67333 was administered i.p. and 30 min after, two or three subsequent tracks were realized. (7B) Discharge frequency of DRN 5-HT neurons is assessed as mean firing rate. The number of neurons tested is indicated in each histogram (n=25 and 26 before and after RS injection for a total of n=5 mice). Data are mean±[…] of DRN 5-HT neurons determined before the administration of RS67333. (7C) Typical recordings of DRN 5-HT neurons in the different experimental conditions. Histograms in the upper panels represent the number of action potentials (APs) per 10 seconds (scale bar). […] (7E) Cortical 5-HT depletion by p-CPA pre-treatment is measured as mean 5-HT levels (n=6-8 mice per group). (7F and 7G) Anxiety is measured in the elevated plus maze (EPM) as mean time or percent time spent in the open arms (F and inset), as mean ratio ambulatory distance in open arms/total distance (7G) and as mean total ambulatory distance (inset) (n=8-11 mice per group). […]

[4] = FIG. 3 cohort, FIG. 3M, Fisher's PLSD

## CCCCN1CCC(CCC(=O)c2cc(Cl)c(N)cc2OC)CC1.Cl [RS-67,333, 1-(4-amino-5-chloro-2-methoxyphenyl)-3-[1(n-butyl)-4-piperidinyl]-1-propanone HCl]
[1]
  CORT-induced increase in body weight: attenuated
C57BL/6NTac mice [2]
  grooming duration (ST) vs CORT+Veh: increased grooming duration
C57BL/6NTac mice [3]
  adverse side effects: did not result in adverse side effects
129S6/SvEv mice; FIG. 2M, t-test
  p, NSF Latency of feed, Saline vs. RS67333 (10 mg/kg): 0.0108
129S6/SvEv mice; FIG. 2N, t-test
  p, NSF Food Eaten (g), Saline vs. RS67333 (10 mg/kg): 0.3871
129S6/SvEv mice; FIG. 2O, t-test
  p, NSF Body Weight, Saline vs. RS67333 (10 mg/kg): 0.8829
129S6/SvEv mice; [4]
  p, NSF Latency to feed (sec), RS67333 (1.5 mg/kg) vs. RS67333 (10 mg/kg): 0.0820
  p, NSF Latency to feed (sec), Saline vs. RS67333 (10 mg/kg): 0.0010
129S6/SvEv mice; FIG. 3 cohort, FIG. 3M, Fisher's PLSD, p cell empty
  significance (* column), NSF Latency to feed (sec), Saline vs. RS67333 (1.5 mg/kg): ns
129S6/SvEv mice; female 129S6/SvEv, 10 mg/kg
  latency to feed (NSF): significantly reduced latency to feed
129S6/SvEv mice; male 129S6/SvEv, 10 mg/kg
  latency to approach the pellet (NSF) vs saline: significantly reduced latency
DRN 5-HT neurons
  increase of the discharge frequency of DRN 5-HT neurons: 63%
